Values joined by “and” are separate entries in the source; they are usually repeats but may differ in a detail not shown here. Equal entries are not always repeated.
Test system: P. berghei ANKA
Test: P. berghei 4-day mouse model
Type: in vivo
Details: 20 mg/kg p.o. q.d. at 2, 24, 48, 72 h
Method: In this model, mice are infected with P. berghei ANKA asexual blood stage parasites. Compounds are then administered by oral gavage at 20 mg/kg 2, 24, 48, and 72 hours after the parasite infection.
Each day, a fresh aliquot of the compound stock was diluted 1/10 in water for administration to mice. 8 week old female mice (Ozgene) on day 0 were infected with 2×10^7 P. berghei ANKA‐infected erythrocytes. […] 2 mice were also dosed with artesunate using the same regime at 30 mg/kg. The parasitemia of mice was assessed by visualizing Giemsa‐stained thin blood smears by microscopy and a minimum of 1000 RBCs were counted. To calculate the percent antimalarial activity the following formula was used: 100 ‐ (mean parasitemia treated day 4 post‐infection/mean parasitemia vehicle control day 4 post‐infection)×100. Mice were culled the day following the last oral gavage.
Briefly, ‘donor’ female Swiss mice were infected intraperitoneally (IP) with blood stage P. berghei parasites constitutively expressing GFP (P. berghei ANKA GFPcon 259cl2).[36] Three days later, groups of 3 ‘acceptor’ Swiss mice were infected intravenously with 1 x 10^7 parasitised red blood cells from the ‘donor mice’. […] Control mice were left untreated. Peripheral blood samples were taken 24 h after administration of the last dose, and parasitemia was measured by flow cytometry (proportion of GFP‐positive cells in 100,000 recorded events using Attune Nxt, ThermoFisher) and microscopic analysis of Giemsa‐stained blood smears. Parasitemia values were averages of 3 mice per group.

CN1C(=O)c2ccc(-n3cccn3)cc2NC1(C)C(=O)Nc1cncc(Cl)c1 (centres unmarked) [Compound 33, N‐(5‐Chloropyridin‐3‐yl)‐2,3‐dimethyl‐4‐oxo‐7‐(1H‐pyrazol‐1‐yl)‐1,2,3,4‐tetrahydroquinazoline‐2‐carboxamide]
% parasitemia (day 4): 12.8% | % reduction in parasitemia (day 4, versus control): 46% and 46.7%

From PMC11648822, “Lactam Truncation Yields a Dihydroquinazolinone Scaffold with Potent Antimalarial Activity that Targets PfATP4” (Chemmedchem, 2024)
